What was measured:
[1] = system: human G12D mutant KRAS-positive pancreatic cancer line AsPC-1; test: Non-anchorage-dependent cell growth inhibition, spheroid 3D cell culture (Test Example 3); format: cell-based; details: AsPC-1 spheroid 3D culture, 6 days, CellTiter Glo 2.0
Outline: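 AsPC-1 spheroids, 5×10^2 cells per well on low-adhesion round-bottom plates in RPMI 1640/10% FBS, dosed next day at 10 or 6 points spanning 10 μM to 0.3 nM final for 6 days at 37° C., 5% CO2. Viability by CellTiter Glo 2.0 luminescence; IC50 by Sigmoid-Emax regression, DMSO 100% and cell-free medium 0%.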

[2] = system: phosphorylation of threonine 202 (Thr202) and tyrosine 204 (Tyr204) of ERK; test: ERK phosphorylation inhibitory effect by Cell ELISA in AsPC-1 (Test Example 2); format: cell-based, human; details: cultured overnight with compound, 1 μM trametinib taken as 0%
Outline: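 AsPC-1 cells (G12D KRAS) treated overnight with compound (10 points, 10 μM to 0.3 nM final), then glyoxal-fixed and immunostained for phospho-ERK with a fluorescent secondary read at 800 nm. IC50 by Sigmoid-Emax regression, with DMSO as 100% and 1 μM trametinib as 0%.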

KRAS G12D protein = biological target: T1, KRAS G12D protein (Homo sapiens, UniProt P01116, G12D); test: KRAS degradation activity by Cell ELISA in AsPC-1 (Test Example 1); format: cell-based; details: AsPC-1 cells, cultured overnight with compound, corrected with β-actin, read-out: DC50 (50% degradation concentration of the amounts of KRAS)
T1 construct: host or cells: AsPC-1
Outline: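 AsPC-1 cells (KRAS G12D), 2.0×10^4/well, treated overnight with compound (10 points, 10 μM–0.3 nM final) in RPMI 1640/10% FBS. Fixed cells immunostained for G12D-specific Ras and β-actin, with near-IR fluorescence read. Ras/actin ratio scaled DMSO = 0% and actin-only = 100%, and DC50 fitted by Sigmoid-Emax regression.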

[3] = Homo sapiens, ASPC1, AsPC-1 cells

T1 sequence (P01116 1-188 isoform P01116-2 G12D): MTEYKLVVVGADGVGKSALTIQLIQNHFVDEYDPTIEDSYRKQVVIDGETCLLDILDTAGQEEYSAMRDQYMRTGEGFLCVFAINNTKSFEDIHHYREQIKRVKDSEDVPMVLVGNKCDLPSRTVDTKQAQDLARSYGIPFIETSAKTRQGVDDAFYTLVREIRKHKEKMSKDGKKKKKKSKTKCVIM

| IC50 ([1]; Homo sapiens, ASPC1, 144 h) [µM] | IC50 [2, 3] [µM] | DC50 (KRAS G12D protein) [µM] | IC50 [1] [µM] | IC50 ([2]; AsPC-1 cells) [µM] | SMILES |
| --- | --- | --- | --- | --- | --- |
| 0.005 | 0.005 | 0.059 | – | – | CO[C@@H](C)COc1cc(O[C@H]2CCNC2)c2cc(C3CC3)c(-c3c(C)c(F)cc4[nH]ncc34)c(OCc3ccc(-c4cn([C@H](C(=O)N5C[C@H](O)C[C@H]5C(=O)N[C@@H](CO)c5ccc(-c6scnc6C)cc5)C(C)C)nn4)cc3)c2n1 [Example 22] |
| 0.004 | 0.006 | 0.091 | – | – | Cc1ncsc1-c1ccc([C@H](CO)NC(=O)[C@@H]2C[C@@H](O)CN2C(=O)[C@H](C(C)C)n2cc(-c3ccc(COc4c(-c5c(C)c(F)cc6[nH]ncc56)c(C5CC5)cc5c(N(C)[C@H]6CCNC6)nc(OC[C@@H](C)C(F)F)nc45)cc3)nn2)cc1 [Example 42] |
| 0.015 | 0.004 | 0.01 | – | – | CO[C@@H](C)COc1cc(N2C[C@@H]3C[C@H]2CN3)c2cc(C3CC3)c(-c3c(C)c(F)cc4[nH]ncc34)c(OCc3ccc(-c4cn([C@H](C(=O)N5C[C@H](O)C[C@H]5C(=O)N[C@@H](CO)c5ccc(-c6scnc6C)cc5)C(C)C)nn4)cc3)c2n1 [Example 55] |
| – | – | 0.028 | 0.073 | 0.017 | CO[C@@H](C)COc1cc(N(C)[C@H]2CCNC2)c2cc(C3CC3)c(-c3c(C)c(F)cc4[nH]ncc34)c(OCc3ccc(-c4cn([C@H](C(=O)N5C[C@H](O)C[C@H]5C(=O)N[C@@H](CO)c5ccc(-c6scnc6C)cc5)C(C)C)nn4)cc3)c2n1 [Example 56] |
